In brackets after ≈: the same amount, converted by molar mass.
Key:
ROCK1 = ROCK1 (Homo sapiens (Human), UniProt Q13464); test: ADP-Glo kinase assay, ROCK1; format: biochemical; details: 10 μM ATP, 170 μM S6K substrate, 120 min
Description: (§1) ADP-Glo kinase assay (Promega). The ADP-Glo™ Kinase Assay is a luminescent ADP detection assay that allows measurement of kinase activity based on the amount of ADP produced during a kinase reaction. The kinase reaction is performed in the presence of ATP, S6K substrate ([…]) and the ROCK kinase in the appropriate Kinase Reaction Buffer (1×). Upon termination of the reaction, the unconsumed ATP is depleted by addition of ADP-Glo™ Reagent. Next, Kinase Detection Reagent is added to convert ADP to ATP and allow the newly synthesized ATP to be measured using a luciferase/luciferin reaction. The luminescence is proportional to the produced ADP and consequently to the kinase activity. The ADP-Glo™ Kinase Assay was performed in a 384 well plate format as follows.
(§2) Kinase Detection Reagent Preparation: The Kinase Detection Buffer was thawed at room temperature (RT). If a precipitate was present, the buffer was incubated at 37° C. with constant swirling for 15 minutes to dissolve the precipitate or the precipitate was removed from the buffer by carefully pipetting the supernatant from the bottle. After equilibrating both the Kinase Detection Buffer and Kinase Detection Substrate to room temperature, the entire volume of Kinase Detection Buffer was transferred into the bottle containing Kinase Detection Substrate to reconstitute the lyophilized substrate, followed by gentile mixing to obtain a homogeneous solution.
(§3) Kinase Reaction Buffer Preparation: Kinase reaction buffer was prepared freshly before each experiment.
(§4) ADP-Glo Reagents Preparation. Three mixes were prepared on ice before running the assay: • Mix 1—containing ROCK1 or ROCK2 in Kinase Reaction Buffer (1×) • Mix 2—containing S6K peptide in Kinase Reaction Buffer (1×) • Mix 3—containing ATP in Kinase Reaction Buffer (1×)
(§5) The ratios of reagent volumes in the assay were 1:1:2 of kinase reaction to ADP-Glo™ Reagent to Kinase Detection Reagent. For 384-well plates, volumes were: 5 μl of kinase reaction, 5 μl of ADP-Glo™ Reagent and 10 μl of Kinase Detection Reagent.
(§6) Generating a standard curve for conversion of ATP to ADP. To estimate the amount of ADP produced in the kinase reaction, a standard curve that represents the luminescence corresponding to the conversion of ATP to ADP was prepared based on the ATP concentration used in the kinase reaction. These conversion curves represent the amounts of ATP and ADP available in a reaction at the specified conversion percentage ranging from 100% conversion to 0% conversion. The standard samples used to generate an ATP-to-ADP conversion curve are created by combining the appropriate volumes of ATP and ADP stock solutions.
(§7) Each plate contained a positive control (1 μM Comp. A for ROCK2 and 1 μM RKI-1447 for ROCK1); a vehicle control (1% DMSO); a blank control (kinase reaction buffer (1×)); a low control (substrate and ATP, without kinase); and an autophosphorylation control (kinase and ATP, without substrate). Test and reference compounds were diluted in 100% DMSO to obtain 10 mM stock solutions. Each compound was tested in 8-serial dilutions in duplicate. The final concentration of DMSO in the reaction was 1% (up to 50 nL).
(§8) 5 μl/well Kinase Reaction Buffer (1×) was dispensed to blank control wells. 2 μl/well Kinase Reaction Buffer (1×) was dispensed to control without protein (low control) and without substrate (autophosphorylation) wells. The plate was sealed with adhesive film followed by a short spin (1 min, 1000 rpm).
(§9) 2 μl/well kinase (2.5×) solution was dispensed into relevant wells of the assay plate. The plate was sealed with adhesive film followed by a short spin (1 min, 1000 rpm).
(§10) The plate was sealed with adhesive film followed by a short spin (1 min, 1000 rpm).
(§11) 1 μl/well ATP (5×) solution was dispensed into relevant wells of the assay plate. The final volume of reaction was […]. The plate was sealed with adhesive film followed by a short spin (1 min, 1000 rpm).

ROCK2 = ROCK2 (Homo sapiens (Human), UniProt O75116); test: ADP-Glo kinase assay, ROCK2; format: biochemical; details: 40 μM ATP, 170 μM S6K substrate, 120 min
Description: as §1, §2, §3, §4, §5, §6, §7, §8, §9, §10, §11

[1] = system: human lung fibroblast MRC-5 cells; test: Col1A protein secretion in MRC-5 supernatants (ELISA); format: cell-based; details: MRC-5, TGF-β1 2.5 ng/mL, 48 hours, FIG. 6
Description: (§12) ROCKs are activated by small GTPase Rho in response to a variety of profibrotic signals and regulate cytoskeletal dynamics, activation of different down-stream intracellular targets and expression of key profibrotic genes, such as fibronectin, smooth muscle actin (α-SMA) and collagen 3 (Col3A1).
(§13) In these studies, human lung fibroblast MRC-5 cells were acquired from American Type Culture Collection (ATCC) and cultured in MEM supplemented with 10% fetal bovine serum. The cells were seeded in 24-well cell culture plates at 50,000/mL/well. On the following day, the cells were starved in MEM containing 0.5% FBS for overnight. […] Cellular mRNA was isolated and mRNA expression of indicated genes (fibronectin, αSMA and col3A) was analyzed by RT-PCR (FIG. 5). Secreted pro-collagen 1a (Col1A1) in supernatants was measured by ELISA (FIG. 6).

[2] = system: Human subcutaneous adipocytes; test: Adipogenesis in primary human adipocytes (Oil Red staining); format: cell-based; details: adipogenic cocktail, 10 days, Oil Red absorbance, FIG. 7
Description: Adipogenesis is a multi-step complex process, progressing from precursor stem cells to adipocytes that synthesize and store fat. […] ROCKs have been implicated in regulation of adipocyte differentiation, however the isoform-specific contribution to adipogenesis and other metabolic pathways is not well characterized. […] In this study, Human subcutaneous adipocytes were grown to confluence before induction to differentiation by adipogenic cocktail (0.1 μM dexamethasone, 1 μM insulin, 200 μM indomethacin, 250 μM isobutyl methylxanthine (IBMX)) in the presence of indicated concentrations of Ex. 1 or Ex. 2 for 10 days. Differentiated cells were stained by Oil Red which was extracted by isopropanol and measured by absorbance at 492 nm.

[3] = system: pCofilin in human CD4+ T cells; test: pCofilin in human CD4+ T cells (Western Blot); format: cell-based; details: stimulated 2 hours, FIG. 4
Description: (§14) In these studies, peripheral blood CD4^+ T cells were treated with indicated doses of inhibitors and then stimulated by anti-CD3/28 mAbs, IL-1β (50 ng/mL) and TGF-β (5 ng/mL) for 2 hours. The cell lysates were prepared and analyzed by Western Blot. One representative of three different experiments is shown.

[4] = system: IL-17 secretion in human CD4+ T cells; test: IL-17 secretion in Th17-skewed human CD4+ T cells (ELISA); format: cell-based; details: anti-CD3/28 mAbs, IL-1β (50 ng/mL) and TGF-β (5 ng/mL), 48 hours
Description: In this study, peripheral blood CD4^+ T cells were treated with the indicated doses of the ROCK2 inhibitors and then stimulated by anti-CD3/28 mAbs, IL-1β (50 ng/mL) and TGF-β (5 ng/mL) for 48 hours. The supernatants were analyzed for IL-17 by ELISA. One representative of three different experiments is shown.

Kinetic solubility = format: physicochemical; details: kinetic from dmso stock
[5] = system: human lung fibroblast MRC-5 cells; test: TGF-β-induced pro-fibrogenic gene expression in MRC-5 fibroblasts (RT-PCR); format: cell-based; details: MRC-5, TGF-β1 2.5 ng/mL, 48 hours, FIG. 5
Description: as §12, §13

[6] = system: STAT3 phosphorylation in human CD4+ T cells; test: STAT3 phosphorylation in Th17-skewed human CD4+ T cells (Western Blot); format: cell-based; details: stimulated 2 hours, FIG. 3
Description: as §14

Sequence of ROCK2 (O75116 whole entry): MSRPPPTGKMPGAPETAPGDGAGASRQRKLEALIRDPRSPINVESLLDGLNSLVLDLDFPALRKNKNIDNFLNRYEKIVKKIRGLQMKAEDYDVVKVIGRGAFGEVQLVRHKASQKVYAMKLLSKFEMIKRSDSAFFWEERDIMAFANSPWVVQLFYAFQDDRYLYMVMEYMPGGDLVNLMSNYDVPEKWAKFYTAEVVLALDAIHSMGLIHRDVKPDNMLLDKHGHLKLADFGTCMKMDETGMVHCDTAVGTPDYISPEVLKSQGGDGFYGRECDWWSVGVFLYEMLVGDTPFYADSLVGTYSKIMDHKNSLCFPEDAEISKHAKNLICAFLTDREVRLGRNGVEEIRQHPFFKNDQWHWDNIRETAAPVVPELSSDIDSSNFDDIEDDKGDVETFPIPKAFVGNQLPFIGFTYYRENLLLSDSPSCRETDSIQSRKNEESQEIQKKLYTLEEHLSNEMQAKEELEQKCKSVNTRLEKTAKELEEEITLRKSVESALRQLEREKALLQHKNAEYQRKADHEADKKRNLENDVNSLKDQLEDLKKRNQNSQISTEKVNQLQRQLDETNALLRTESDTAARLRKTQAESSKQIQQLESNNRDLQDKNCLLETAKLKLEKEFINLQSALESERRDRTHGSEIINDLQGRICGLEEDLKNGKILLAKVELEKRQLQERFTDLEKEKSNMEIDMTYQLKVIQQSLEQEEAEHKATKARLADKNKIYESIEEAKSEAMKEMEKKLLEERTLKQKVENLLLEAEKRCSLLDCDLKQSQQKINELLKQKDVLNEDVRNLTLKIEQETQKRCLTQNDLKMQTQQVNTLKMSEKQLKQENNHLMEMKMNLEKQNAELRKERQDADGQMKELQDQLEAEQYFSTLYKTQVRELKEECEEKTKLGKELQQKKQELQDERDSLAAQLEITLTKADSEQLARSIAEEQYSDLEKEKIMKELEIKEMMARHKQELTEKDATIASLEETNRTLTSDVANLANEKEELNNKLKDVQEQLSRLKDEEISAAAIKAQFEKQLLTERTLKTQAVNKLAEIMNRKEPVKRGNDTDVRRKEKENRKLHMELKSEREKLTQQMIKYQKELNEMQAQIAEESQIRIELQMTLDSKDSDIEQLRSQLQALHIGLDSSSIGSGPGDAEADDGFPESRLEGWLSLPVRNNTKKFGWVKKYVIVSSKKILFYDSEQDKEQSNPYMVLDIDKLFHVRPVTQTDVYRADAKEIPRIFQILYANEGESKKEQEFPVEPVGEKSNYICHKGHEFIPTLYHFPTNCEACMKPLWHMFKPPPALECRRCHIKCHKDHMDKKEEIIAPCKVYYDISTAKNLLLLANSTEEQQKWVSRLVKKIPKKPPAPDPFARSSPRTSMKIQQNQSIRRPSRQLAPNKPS
Sequence of ROCK1 (Q13464 whole entry): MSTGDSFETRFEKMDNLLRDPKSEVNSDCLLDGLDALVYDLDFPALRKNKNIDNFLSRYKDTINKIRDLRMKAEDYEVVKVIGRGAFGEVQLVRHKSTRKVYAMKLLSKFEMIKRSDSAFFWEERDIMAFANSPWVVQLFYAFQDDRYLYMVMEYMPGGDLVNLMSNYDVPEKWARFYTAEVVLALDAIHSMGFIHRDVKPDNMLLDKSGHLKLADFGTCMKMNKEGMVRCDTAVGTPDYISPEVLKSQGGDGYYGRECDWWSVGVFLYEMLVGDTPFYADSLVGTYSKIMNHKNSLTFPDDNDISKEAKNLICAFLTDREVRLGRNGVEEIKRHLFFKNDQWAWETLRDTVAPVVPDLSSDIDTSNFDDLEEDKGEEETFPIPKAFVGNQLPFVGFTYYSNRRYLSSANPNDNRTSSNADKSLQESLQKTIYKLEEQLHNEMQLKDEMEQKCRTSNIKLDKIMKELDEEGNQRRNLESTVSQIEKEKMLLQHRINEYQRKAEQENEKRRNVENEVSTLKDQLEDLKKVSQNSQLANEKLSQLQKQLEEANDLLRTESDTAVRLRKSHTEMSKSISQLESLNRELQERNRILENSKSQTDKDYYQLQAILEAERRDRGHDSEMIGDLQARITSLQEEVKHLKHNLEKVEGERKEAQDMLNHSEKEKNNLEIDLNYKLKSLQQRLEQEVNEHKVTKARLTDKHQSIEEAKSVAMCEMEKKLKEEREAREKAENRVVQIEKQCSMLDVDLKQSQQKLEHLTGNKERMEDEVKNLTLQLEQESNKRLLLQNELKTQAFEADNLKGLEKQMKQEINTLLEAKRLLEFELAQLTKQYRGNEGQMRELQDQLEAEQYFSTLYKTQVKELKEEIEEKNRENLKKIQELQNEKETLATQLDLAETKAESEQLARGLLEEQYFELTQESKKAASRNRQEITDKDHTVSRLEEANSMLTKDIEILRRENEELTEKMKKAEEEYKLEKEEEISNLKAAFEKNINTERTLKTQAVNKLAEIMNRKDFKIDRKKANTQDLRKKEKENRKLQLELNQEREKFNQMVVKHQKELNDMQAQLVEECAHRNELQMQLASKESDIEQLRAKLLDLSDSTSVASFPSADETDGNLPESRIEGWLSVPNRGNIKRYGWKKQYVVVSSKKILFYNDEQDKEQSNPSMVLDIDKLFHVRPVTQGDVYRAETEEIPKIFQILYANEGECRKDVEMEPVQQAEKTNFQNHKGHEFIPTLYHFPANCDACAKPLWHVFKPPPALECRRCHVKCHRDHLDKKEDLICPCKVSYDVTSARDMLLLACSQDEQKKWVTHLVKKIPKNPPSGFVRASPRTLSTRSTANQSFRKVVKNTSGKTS

Row | SMILES | IC50 (ROCK1) [µM] | IC50 (ROCK2) [µM] | further results
1 | C[C@H](NC(=O)c1cc2ccc(-c3nccc(Nc4ccc(-c5cnc[nH]5)cc4)n3)cc2n1CCN(C)C)C(F)(F)F [Example 8] | 10.7 |  | 
2 | CN(C)CCn1c(C(=O)N2CCC(F)(F)C2)cc2ccc(-c3nccc(Nc4ccc(-c5cnc[nH]5)cc4)n3)cc21 [Example 13] | 4.29 | 10 | 
3 | Cn1c(C(=O)N2CCCC2)cc2ccc(-c3nccc(Nc4ccc(-c5cn[nH]n5)cc4)n3)cc21 [Example 16] | 0.792 |  | 
4 | Cn1c(C(=O)N2CC(F)(F)C2)cc2ccc(-c3nccc(Nc4ccc(-c5c[nH]nn5)cc4)n3)cc21 [Example 2, 2-[2-(3,3-difluoroazetidine-1-carbonyl)-1-methyl-1H-indol-6-yl]-N-[4-(1H-1,2,3-triazol-4-yl)phenyl]pyrimidin-4-amine] | > 50 |  | Col1A protein production in supernatants [1]: down-regulate dose-dependently; adipogenesis [2]: down-regulate adipogenesis in a dose-dependent manner; pCofilin [3]: down-regulate pCofilin; EC50 [4]: 0.764 µM; solubility kinetic (Kinetic solubility): 2.69 µg/mL (≈ 5.53 µM); TGF-β-induced Col3A1 gene expression [5]: down-regulate dose-dependently; TGF-β-induced fibronectin gene expression [5]: down-regulate dose-dependently; TGF-β-induced α-SMA gene expression [5]: down-regulate dose-dependently; STAT3 phosphorylation induced by Th17-skewing activation [6]: down-regulate STAT3 phosphorylation
5 | O=C(c1nc2ccc(-c3nccc(Nc4ccc(-c5cn[nH]n5)cc4)n3)cc2[nH]1)N1CC(F)(F)C1 [Example 22] | 25.2 |  | 
6 | O=C(c1cc2ccc(-c3nccc(Nc4ccc(-c5cn[nH]n5)cc4)n3)cc2o1)N1CC(F)(F)C1 [Example 19] | 2.01 | 10 | 
7 | C[C@H](NC(=O)c1cc2ccc(-c3nccc(Nc4ccc(-c5cnc[nH]5)cc4)n3)cc2n1CC1COC1)C(F)(F)F [Example 10] | 4 |  | 
8 | O=C(c1cc2c(s1)CN(c1nccc(Nc3ccc(-c4cnn[nH]4)cc3)n1)CC2)N1CC2C(C1)C2(F)F (stereo not drawn) [Example 24] | 1.22 | 0.207 | 
9 | O=C(c1cc2c(s1)CN(c1nccc(Nc3ccc(-c4c[nH]nn4)cc3)n1)CC2)N1CC(F)(F)C1 [Example 3′, 2-[2-(3,3-difluoroazetidine-1-carbonyl)-4H,5H,6H,7H-thieno[2,3-c]pyridin-6-yl]-N-[4-(1H-1,2,3-triazol-4-yl)phenyl]pyrimidin-4-amine] | 2.73 | 0.961 | 
10 | CN(C)C(=O)Cn1c(C(=O)N2CC(F)(F)C2)cc2ccc(-c3nccc(Nc4ccc(-c5cnc[nH]5)cc4)n3)cc21 [Example 4] | > 50 |  | 
11 | O=C(c1cc2c(s1)CN(c1nccc(Nc3ccc(-c4cnc[nH]4)cc3)n1)CC2)N1CC2C(C1)C2(F)F (stereo not drawn) [Example 23] | 8.91 | 0.334 | 
12 | C[C@H](NC(=O)c1cc2ccc(-c3nccc(Nc4ccc(-c5cnc[nH]5)cc4)n3)cc2n1C)C(F)(F)F [Example 9] | 0.746 |  | 
13 | CN(C)CCn1c(C(=O)N2CC(F)(F)C2)cc2ccc(-c3nccc(Nc4ccc(-c5cn[nH]n5)cc4)n3)cc21 [Example 15] | 0.281 |  | 
14 | Cn1c(C(=O)N2CCC(F)(F)C2)cc2ccc(-c3nccc(Nc4ccc(-c5cnc[nH]5)cc4)n3)cc21 [Example 7] | 2.1 |  | 
15 | Cn1c(C(=O)N2CC(F)(F)C2)cc2ccc(-c3nccc(Nc4ccc(-c5cnc[nH]5)cc4)n3)cc21 [Example 1, 2-[2-(3,3-difluoroazetidine-1-carbonyl)-1-methyl-1H-indol-6-yl]-N-[4-(1H-imidazol-5-yl)phenyl]pyrimidin-4-amine] | > 50 |  | Col1A protein production in supernatants [1]: down-regulate dose-dependently; adipogenesis [2]: down-regulate adipogenesis in a dose-dependent manner; pCofilin [3]: down-regulate pCofilin; EC50 [4]: 0.838 µM; solubility kinetic (Kinetic solubility): 2.2 µg/mL (≈ 4.53 µM); TGF-β-induced Col3A1 gene expression [5]: down-regulate dose-dependently; TGF-β-induced fibronectin gene expression [5]: down-regulate dose-dependently; TGF-β-induced α-SMA gene expression [5]: down-regulate dose-dependently; STAT3 phosphorylation induced by Th17-skewing activation [6]: down-regulate STAT3 phosphorylation
16 | Cn1c(C(=O)N2CCCC2)cc2ccc(-c3nccc(Nc4ccc(-c5cnc[nH]5)cc4)n3)cc21 [Example 12] | 2.28 | 10 | 
17 | CN(C)CCn1c(C(=O)N2CCC(F)(F)C2)cc2ccc(-c3nccc(Nc4ccc(-c5cn[nH]n5)cc4)n3)cc21 [Example 18] | 23.2 |  | 
18 | Cn1c(C(=O)N2CC(F)(F)C2)cc2ccc(-c3nccc(Nc4ccc(-c5cn[nH]c5)cc4)n3)cc21 [Comp. A, reference compound] | 3.21 | 0.00229 | solubility kinetic (Kinetic solubility): < 1.9 µg/mL
19 | O=C(c1cc2c(s1)CN(c1nccc(Nc3ccc(-c4cnc[nH]4)cc3)n1)CC2)N1CCC(F)(F)C1 [Example 25] | 6.85 |  | 
